The source of these data is US9120791B2, “Indolizine compounds, a process for their preparation and pharmaceutical compositions containing them” (LES LABORATOIRES SERVIER, priority 2012, dated 2015).

Test [1] relates to RS4;11 leukaemia tumour line. Put plainly: In vitro cytotoxicity (Microculture Tetrazolium Assay, 48 hours). The class given is cell-based. The settings on record: Homo sapiens, RS4;11 cells, 48 hours exposure, MTT, concentration that inhibits cell viability by 50%, read-out: IC50 (nM) MTT RS4. As to the method:
The cytotoxicity studies were carried out on the RS4;11 leukaemia tumour line.
The cells are distributed onto microplates and exposed to the test compounds for 48 hours.

The next test relates to caspase 3. Put plainly: Induction of caspase activity in vivo (DEVDase activity in tumour lysates, RS4;11 xenograft). On the set-up: species or system mice (SCID strain). The settings on record: Mus musculus; oral treatment, 50 mg/kg, 16 hours after treatment, RS4;11 xenograft in SCID mice; read-out: Activation factor (versus control), DEVDase activity in the tumours. As to the method:
(§1) The ability of the compounds of the invention to activate caspase 3 is evaluated in a xenograft model of RS4;11 leukaemia cells.
1×10^7 RS4;11 cells are grafted sub-cutaneously into immunosuppressed mice (SCID strain). 25 to 30 days after the graft, the animals are treated orally with the various compounds. Sixteen hours after treatment, the tumour masses are recovered and lysed, and the caspase 3 activity is measured in the tumour lysates.
This enzymatic measurement is carried out by assaying the appearance of a fluorigenic cleavage product (DEVDase activity, Promega). It is expressed in the form of an activation factor corresponding to the ratio between the two caspase activities:the activity for the treated mice divided by the activity for the control mice.

The target of another test is Bcl-2 protein (Homo sapiens (Human), UniProt P10415). Put plainly: Inhibition of Bcl-2 by the fluorescence polarisation technique. The settings on record: fluorescence polarisation test; concentration that inhibits fluorescence polarisation by 50%; read-out: IC50 (nM) Bcl-2 FP. The format is binding. As to the method:
The fluorescence polarisation tests were carried out on microplates (384 wells). […] After incubation for 2 hours, the fluorescence polarisation is measured.
For orientation: Fluorescence polarisation rises when a labelled molecule tumbles more slowly, as on binding a larger partner.

The test system of test [2] is cleaved form of caspase 3. Put plainly: Quantification of the cleaved form of caspase 3 in vivo (MSD ELISA, RS4;11 xenograft). On the set-up: species or system mice (SCID strain). The settings on record: oral treatment, RS4;11 xenograft in SCID mice. As to the method: as §1
1×10^7 RS4;11 cells are grafted subcutaneously into immunosuppressed mice (SCID strain). 25 to 30 days after the graft, the animals are treated orally with the various compounds. After treatment, the tumour masses are recovered and lysed, and the cleaved (activated) form of caspase 3 is quantified in the tumour lysates.
The quantification is carried out using the “Meso Scale Discovery (MSD) ELISA platform” test, which specifically assays the cleaved form of caspase 3. It is expressed in the form of an activation factor corresponding to the ratio between the quantity of cleaved caspase 3 in the treated mice divided by the quantity of cleaved caspase 3 in the control mice.
For orientation: In an ELISA, binding on a coated surface is turned into a signal by an enzyme label.

Counter-ions that a name gives are not always drawn.

Sequence of Bcl-2 protein (P10415 whole entry): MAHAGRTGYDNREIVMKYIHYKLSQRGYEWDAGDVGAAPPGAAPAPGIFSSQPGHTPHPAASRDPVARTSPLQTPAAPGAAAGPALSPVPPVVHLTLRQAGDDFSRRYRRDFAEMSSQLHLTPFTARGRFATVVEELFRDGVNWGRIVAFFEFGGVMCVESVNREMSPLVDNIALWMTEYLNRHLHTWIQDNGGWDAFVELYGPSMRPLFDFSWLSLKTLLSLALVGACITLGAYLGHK

In general, IC50 refers to the point on the concentration scale where inhibition reaches its midpoint. As for `Cn1ccc2cc(N(C(=O)c3cc(-c4cc(Cl)ccc4C(=O)N4Cc5ccccc5C[C@H]4CN4CCOCC4)n4c3CCCC4)c3ccc(O)cc3)ccc21` [Example 22, 3-{5-Chloro-2-[((3S)-3-(4-morpholinylmethyl)-3,4-dihydro-2(1H)-isoquinolinyl)carbonyl]phenyl}-N-(4-hydroxyphenyl)-N-(1-methyl-1H-indol-5-yl)-5,6,7,8-tetrahydro-1-indolizine carboxamide hydrochloride], the values for the IC50 (in test [1]; at Bcl-2 protein) were 19.1 nM and 27 nM, respectively. The fold induction at 50 mg/kg with caspase 3 was determined as 11.3.

As to `CN1CCc2cc(N(C(=O)c3cc(-c4cc(Cl)ccc4C(=O)N4Cc5ccccc5C[C@H]4CN4CCOCC4)n4c3CCCC4)c3ccc(O)cc3)ccc21` [Example 23, 3-{5-Chloro-2-[((3S)-3-(4-morpholinylmethyl)-3,4-dihydro-2(1H)-isoquinolinyl)carbonyl]phenyl}-N-(4-hydroxyphenyl)-N-(1-methyl-2,3-dihydro-1H-indol-5-yl)-5,6,7,8-tetrahydro-1-indolizine carboxamide bis(hydrochloride)], the figures for the concentration for half-maximal inhibition (IC50) (in test [1]; at Bcl-2 protein) were 23 nM and 14 nM, respectively. In the test on caspase 3, the fold induction at 50 mg/kg was determined as 22.7.

For `Cn1ccc2cc(N(C(=O)c3cc(-c4cc5c(cc4C(=O)N4Cc6ccccc6C[C@H]4CN4CCOCC4)OCO5)n4ccccc34)c3ccc(O)cc3)ccc21` [Example 59, N-(4-Hydroxyphenyl)-N-(1-methyl-1H-indol-5-yl)-3-{6-[((3S)-3-(4-morpholinylmethyl)-3,4-dihydro-2(1H)-isoquinolinyl)carbonyl]-1,3-benzodioxol-5-yl}-1-indolizine carboxamide hydrochloride], the IC50 in test [1] is 8.13 nM; at Bcl-2 protein, 13 nM. In addition, the fold induction at 50 mg/kg in the test on caspase 3 amounted to 23.

`CN1CCc2cc(N(C(=O)c3cc(-c4cc(Cl)ccc4C(=O)N4Cc5ccccc5C[C@H]4CN4CCOCC4)n4ccccc34)c3ccc(O)cc3)ccc21` [Example 66, 3-{5-Chloro-2-[((3S)-3-(4-morpholinylmethyl)-3,4-dihydro-2(1H)-isoquinolinyl)carbonyl]phenyl}-N-(4-hydroxyphenyl)-N-(1-methyl-2,3-dihydro-1H-indol-5-yl)-1-indolizine carboxamide bis(hydrochloride)]: the IC50 in test [1] amounted to 21.7 nM; at Bcl-2 protein, 16 nM. The fold induction at 50 mg/kg with caspase 3 stood at 24.7.

As to `Cn1ccc2cc(N(C(=O)c3cc(-c4cc(Cl)ccc4C(=O)N4Cc5ccccc5C[C@H]4CN4CCOCC4)n4ccccc34)c3ccc(O)cc3)ccc21` [Example 67, 3-{5-Chloro-2-[((3S)-3-(4-morpholinylmethyl)-3,4-dihydro-2(1H)-isoquinolinyl)carbonyl]phenyl}-N-(4-hydroxyphenyl)-N-(1-methyl-1H-indol-5-yl)-1-indolizine carboxamide hydrochloride], the IC50 in test [1] turned out to be 17.7 nM; at Bcl-2 protein it was 24 nM. For the same compound, in the test on caspase 3, the fold induction at 50 mg/kg amounted to 18.9.

`Cl.O=C(c1cc(-c2cc(Cl)ccc2C(=O)N2Cc3ccccc3C[C@H]2CN2CCOCC2)n2c1COCC2)N(c1ccccc1)c1ccc(O)cc1` [Example 78, 6-{5-Chloro-2-[((3S)-3-(4-morpholinylmethyl)-3,4-dihydro-2(1H)-isoquinolinyl)carbonyl]phenyl}-N-(4-hydroxyphenyl)-N-phenyl-3,4-dihydro-1H-pyrrolo[2,1-c][1,4]oxazine-8-carboxamide hydrochloride]: the IC50 in test [1] came out at 101 nM; at Bcl-2 protein, 31 nM. The “Activation factor (versus control), cleaved caspase 3 MSD test in the tumours” value (from here on “Activation factor (versus control)”) in test [2] (25 mg/kg) is given as 10.4 (25 mg/kg).

For `CCCCN(C(=O)c1cc(-c2cc3c(cc2C(=O)N2Cc4ccccc4C[C@H]2CN2CCOCC2)OCO3)n2c1CCCC2)c1ccc(O)cc1.Cl` [Example 87, N-Butyl-N-(4-hydroxyphenyl)-3-{6-[((3S)-3-(4-morpholinylmethyl)-3,4-dihydro-2(1H)-isoquinolinyl)carbonyl]-1,3-benzodioxol-5-yl}-5,6,7,8-tetrahydro-1-indolizine carboxamide hydrochloride], the IC50 in test [1] is 121 nM; at Bcl-2 protein it was 27 nM. Further, the “Activation factor (versus control)” value in test [2] (50 mg/kg) was 18.3 (50 mg/kg).

On to `Cl.O=C(c1cc(-c2cc3c(cc2C(=O)N2Cc4ccccc4C[C@H]2CN2CCOCC2)OCO3)n2c1CCCC2)N(c1ccc(O)cc1)c1cccc(F)c1` [Example 122, N-(3-Fluorophenyl)-N-(4-hydroxyphenyl)-3-(6-{[(3S)-3-(morpholin-4-ylmethyl)-3,4-dihydroisoquinolin-2(1H)-yl]carbonyl}-1,3-benzdioxol-5-yl)-5,6,7,8-tetrahydroindolizine-1-carboxamide hydrochloride], for which the IC50 in test [1] came out at 43.5 nM; at Bcl-2 protein, 16 nM. Besides, the “Activation factor (versus control)” value in test [2] (25 mg/kg) was 17.4 (25 mg/kg).

For `Cl.Cn1cc(N(C(=O)c2cc(-c3cc(Cl)ccc3C(=O)N3Cc4ccccc4C[C@H]3CN3CCOCC3)n3c2CCCC3)c2ccc(O)cc2)cn1` [Example 135, 3-(5-Chloro-2-{[(3S)-3-(morpholin-4-ylmethyl)-3,4-dihydroisoquinolin-2(1H)-yl]carbonyl}phenyl)-N-(4-hydroxyphenyl)-N-(1-methyl-1H-pyrazol-4-yl)-5,6,7,8-tetrahydroindolizine-1-carboxamide hydrochloride], the IC50 in test [1] was found to be 37.4 nM; at Bcl-2 protein it was 6 nM. Moreover, the “Activation factor (versus control)” value in test [2] (50 mg/kg) was 60 (50 mg/kg).
